Results from patent publication US4640930A, “Naphtho(1,8-bc)-1,5-thiazocinones” (Hoffmann-La Roche Inc., priority 1986, dated 1987).
Counter-ions that a name gives are not always drawn.

Legend:
Guinea Pig Ileum = assay: Guinea pig ileum assay: inhibition of tonic contraction (K+ challenge) of longitudinal muscle, calcium channel blocking; format: cell-based; conditions: Cavia porcellus; concentration inhibiting tonic contraction of muscle by 50%; 80 mM K+ challenge, 37° C., compound 2 minutes prior
Method: GUINEA PIG ILEUM ASSAY Male guinea-pigs weighing from 300-400 grams were stunned and bled. The abdomen was opened and 10-15 cm of terminal ileum was carefully removed and cleaned and placed in Tyrode's Solution of the following composition: NaCl (8 g/l), KCl (0.2 g/l), MgCl2 (0.1 g/l.), CaCl2 (0.2 g/l). NaH2 PO4 (0.05 g/l), NaHCO3 (1.0 g/l) and Glucose (1 g/l). The solution was maintained at 37° C. and gassed with 95%O2 and 5%CO2. Portions of the ileum were placed over a glass rod, a shallow incision was made the length of the mesenteric attachment just severing the outer-longitudinal muscle layer. The longitudinal muscle was separated from the underlying circular muscle by gentle dissection (Rang, H. P. Annals of New York Academy of Science, vol. 144, page 756, 1964). The tissue was fixed at one end to a tissue holder, the other end was connected by a thread to a force transducer and suspended in a muscle bath containing Tyrode's Solution maintained at 37° C. and gassed with 95%O2 and 5%CO2. An initial tension of 500 mg was applied and the tissue allowed to equilibrate for 60 minutes prior to the start of the study. During this period the tissue was washed every 16 minutes. Each preparation, at 16 minute intervals, was challenged with KCl sufficient to yield a bath K^+ concentration of 80 mMK for 2 minutes, then washed with fresh solution. The 16 minute interval between K^+ challenges was maintained throughout the study. Upon stabilization of the responses to the K^+ challenge the test compound (potential calcium entry antagonist) was introduced into the bath 2 minutes prior to and during the 2 minute exposure to K^+ after which the bath was cleared and washed with fresh solution. Logarithmically increasing doses (up to 10^-4 M) of the potential antagonist were administered as the study progressed. The measure of a compound's ability to inhibit the tonic contraction of muscle is a measure of its activity as a calcium channel blocking agent.

[1] = tested on: Spontaneously Hypertensive (SH) Rat; assay: Blood pressure lowering in the spontaneously hypertensive (SH) rat; format: in vivo; conditions: oral, male SH rats
Method: BLOOD PRESSURE LOWERING IN THE SPONTANEOUSLY HYPERTENSIVE (SH) RAT
Six male SH rats were used for each test. Body weights were recorded. Six pre-drug control recordings of the systolic blood pressure (mmHg) were measured from the tails of the rats which were unanesthetized and restrained in holders. The rats were previously heated for 5-10 minutes at 32°-34° C. The systolic blood pressure was measured by an occlusion cuff.
The compounds were administered orally to the rats in a composition that included 5% compound and the remainder gum acacia. The blood pressure of the rats was measured over a period of hours following oral administration.
The measure of a compound's ability to decrease blood pressure, is a measure of its activity as an anti-hypertensive agent.

IC50 (Guinea Pig Ileum) [µM] | SMILES | Systolic Blood Pressure in SH Rat Peak Decrease (Δ mm Hg) ([1]; unanesthetized, occlusion cuff on tail, peak decrease) [mm Hg] | Duration of Effect on blood pressure ([1]; footnote a) [h]
3.9 | COc1ccc([C@@H]2Sc3cccc4cccc(c34)N(CCN(C)C)C(=O)[C@@H]2OC(C)=O)cc1 (relative stereo) [OCOCH3 HCl (±)-cis, (±)-cis-3-(acetyloxy)-2,3-dihydro-5-[2-dimethylamino)ethyl]-2-(4-methoxyphenyl)naphtho[1,8-bc]-1,5-thiazocin-4(5H)-one hydrochloride] |  | 
4.2 | COc1ccc([C@@H]2Sc3cccc4cccc(c34)N(CCN(C)C)C(=O)[C@@H]2O)cc1 (racemic) [OH HCl (±)-cis, (±)-cis-2,3-dihydro-5-[2-(dimethylamino)ethyl]-3-hydroxy-2-(4-methoxyphenyl)naphtho[1,8-bc]-1,5-thiazocin-4(5H)-one hydrochloride] |  | 
3.1 | COc1ccc([C@@H]2Sc3cccc4cccc(c34)N(CCN(C)C)C(=O)[C@@H]2O)cc1 [OH HCl (+)-cis, (+)-cis-2,3-dihydro-5-[2-(dimethylamino)ethyl]-3-hydroxy-2-(4-methoxyphenyl)naphtho[1,8-bc]-1,5-thiazocin-4(5H)-one hydrochloride] |  | 
3 | COc1ccc([C@@H]2Sc3cccc4cccc(c34)N(CCN(C)C)C(=O)[C@H]2OC(C)=O)cc1 (racemic) [OCOCH3 HCl (±)-trans, (±)-trans-3-(acetyloxy)-2,3-dihydro-5-[2-(dimethylamino)ethyl]-2-(4-methoxy-phenyl)-naphtho[1,8-bc]-1,5-thiazocin4(5H)-one hydrochloride] |  | 
0.25 | COc1ccc([C@@H]2Sc3cccc4cccc(c34)N(CCN(C)C)C(=O)[C@@H]2OC(C)=O)cc1.O=C(O)/C=C/C(=O)O [OCOCH3 fumarate (+)-cis, (+)-cis-3-(acetyloxy)-2,3-dihydro-5-[2-(dimethylamino)ethyl]-2-(4-methoxyphenyl)naphtho[1,8-bc]-1,5-thiazocin-4(5H)-one (E)-2-butenedioate] | -66 ± 12 | 1 to 6
